Test: in-vitro nail permeation assay in Franz-type diffusion cells
Format: in vitro ADME, human
Settings: formulations with 5% and 10% (w/w) terbinafine in the vehicle of Table 3; nails with 400 orifices/cm^2, depth 0.5 mm (50% to 70% of nail plate thickness); single dose of 100 μL; 30° C.; up to 72 hours
Method: Franz-cells comprise two chambers separated by the nail plate. The radiolabelled [^14C]-terbinafine containing transungual formulations were applied in the donor upper chamber and the receptor chamber is filled with a buffer to simulate the human physiological conditions. To account for the fact the nails are hard and curved, wetted nails are clamped between two flexible flat silicone polymer disks. The temperature of the cells was kept a 30° C. using a circulating water bath. Magnetic stirrer bars were used to ensure receptor uniformity throughout an experiment.
The nail permeation assays consisted of exposing the dorsal side of the nail plates to the investigated formulations while monitoring the appearance the amount of radiolabelled [^14C]-terbinafine on the ventral side by […] in the receptor fluid chamber of the Franz cells. In all cases a single dose of 100 μL was applied in the nail dorsal side. 100 μL of buffer were taken for each time point for LSC measurement which was replaced by buffer in order to keep the total buffer volume constant. The sampling time points were 0, 1, 3, 5, 7, 24, 32, 48, 52, 55 and 72 hours.
Human cadaveric thumb toenails used in the permeation assays were harvested from diseased adults (age >50 years old) in order to match thickness and consistence of the nails of the patient age group having a higher incidence to onychomycosis. […]

terbinafine permeation fluxes in laser pre-treated nails versus untreated nails: three to four times higher
Compound: CN(C/C=C/C#CC(C)(C)C)Cc1cccc2ccccc12 [terbinafine]

From patent publication US20070144540A1, “Drug delivery through application in nails” (TLT Medical Ltd., priority 2004, published 2007)
